Experimental data reported in patent US6969703B2, “Inhibitors of the ICE/ced-3 family of cysteine proteases” (Idun Pharmaceuticals, Inc., priority 2000, dated 2005).
Primed or numbered codes have the meaning given here. The star is where a group is joined. aldehyde′ = C-terminal aldehyde (aspartyl aldehyde); Cbz = O=C(OCc1ccccc1)*; CH2F = FC*

Experiments:
[1] = biological target: T1, Csp-9 (Homo sapiens, UniProt P55211); assay: Fluorescence enzyme assay, IC50 determination; format: biochemical; conditions: 30 minutes preincubation at room temperature, AMC substrate
T1 sequence (P55211 1-315 limits assumed): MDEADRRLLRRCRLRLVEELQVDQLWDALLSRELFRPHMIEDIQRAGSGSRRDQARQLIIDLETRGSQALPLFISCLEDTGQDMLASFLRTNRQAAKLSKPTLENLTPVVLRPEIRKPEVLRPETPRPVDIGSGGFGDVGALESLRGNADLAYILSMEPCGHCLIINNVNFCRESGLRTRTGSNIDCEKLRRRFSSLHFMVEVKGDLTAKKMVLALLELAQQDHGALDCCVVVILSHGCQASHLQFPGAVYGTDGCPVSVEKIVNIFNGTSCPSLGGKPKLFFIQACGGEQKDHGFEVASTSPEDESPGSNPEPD

[2] = biological target: T2, Csp-1 (Homo sapiens, UniProt P29466); assay: Fluorescence enzyme assay, IC50 determination; format: biochemical; conditions: recombinant enzyme, 30 minutes preincubation at room temperature, AMC substrate
T2 sequence (P29466 120-297 limits assumed): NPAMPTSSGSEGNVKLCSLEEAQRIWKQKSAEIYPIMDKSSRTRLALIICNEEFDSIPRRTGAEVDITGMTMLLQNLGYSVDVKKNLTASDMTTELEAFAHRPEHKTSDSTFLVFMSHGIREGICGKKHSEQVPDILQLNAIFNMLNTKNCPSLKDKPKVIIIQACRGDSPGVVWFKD
Protocol: (§1) Fluorescence enzyme assays detecting the activity of the compounds of Formula I utilizing the recombinant ICE and CPP32 enzymes are performed essentially according to Thornberry et al. (Nature 356:768:774 (1992)) and Nicholson et al. (Nature 376:37-43 (1995)) respectively, (herein incorporated by reference) in 96 well microtiter plates. The substrate is Acetyl-Tyr-Val-Ala-Asp-amino-4-methylcoumarin (AMC) (SEQ ID NO: 1) for the ICE assay and Acetyl-Asp-Glu-Val-Asp-amino-4-methylcoumarin (SEQ ID NO: 2) for the CPP32, Mch2, Mch3 and Mch5 assays. Enzyme reactions are run in ICE buffer (25 mM HEPES, 1 mM EDTA, 0.1% CHAPS, 10% sucrose, pH 7.5) containing 2 mM DTT at room temperature in duplicate. The assays are performed by mixing the following components: • 50 μL ICE, Mch2, Mch5, CPP32 (18.8, 38, 8.1 and 0.153 nM concentrations, respectively) or Mch3 (1 unit) enzyme in ICE buffer containing either 8.0 (ICE, Mch2, Mch3, CPP32) or 20 (Mch5) mM DTT; • 50 μL compound of Formula I or ICE buffer (control); and • 100 μL of 20 μM substrate.
(§2) The enzyme and the compound of Formula I to be assayed are allowed to preincubate in the microtitre plate wells for 30 minutes at room temperature prior to the addition of substrate to initiate the reaction. Fluorescent AMC product formation is monitored for one hour at room temperature by measuring the fluorescence emission at 460 nm using an excitation wavelength of 360 nm. The fluorescence change in duplicate (control) wells are averaged and the mean values are plotted as a function of inhibitor concentration to determine the inhibitor concentration producing 50% inhibition (IC50).
(§3) The activity of a representative compound of this invention (i.e., Compound No. 1) was evaluated according to the procedures disclosed in Example 1. More specifically, the IC50 and Ki for Compound No. 1 were determined as set forth above. The IC50 results are provided in Table 2, as run against Cbz-ValAlaAsp-H as a reference control.

[3] = biological target: T3, Csp-7 (Homo sapiens, UniProt P55210); assay: Fluorescence enzyme assay, IC50 determination; format: biochemical; conditions: 30 minutes preincubation at room temperature, AMC substrate
T3 sequence (P55210 24-198 limits assumed): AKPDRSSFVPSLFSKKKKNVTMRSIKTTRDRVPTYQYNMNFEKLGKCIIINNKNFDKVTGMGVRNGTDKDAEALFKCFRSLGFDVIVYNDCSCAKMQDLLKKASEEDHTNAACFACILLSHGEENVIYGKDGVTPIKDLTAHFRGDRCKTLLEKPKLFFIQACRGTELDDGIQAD
Protocol: as §1, §2, §3

[4] = biological target: T4, Csp-3 (Homo sapiens, UniProt P42574); assay: Fluorescence enzyme assay, IC50 determination; format: biochemical; conditions: recombinant enzyme, 30 minutes preincubation at room temperature, AMC substrate
T4 sequence (P42574 29-175 limits assumed): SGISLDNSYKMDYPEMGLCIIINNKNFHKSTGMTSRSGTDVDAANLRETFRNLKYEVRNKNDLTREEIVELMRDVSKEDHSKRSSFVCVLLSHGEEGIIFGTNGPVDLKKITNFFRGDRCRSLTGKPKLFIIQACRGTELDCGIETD
Protocol: as §1, §2, §3

[5] = biological target: T5, Csp-6 (Homo sapiens, UniProt P55212); assay: Fluorescence enzyme assay, IC50 determination; format: biochemical; conditions: 30 minutes preincubation at room temperature, AMC substrate
T5 sequence (P55212 24-179 limits assumed): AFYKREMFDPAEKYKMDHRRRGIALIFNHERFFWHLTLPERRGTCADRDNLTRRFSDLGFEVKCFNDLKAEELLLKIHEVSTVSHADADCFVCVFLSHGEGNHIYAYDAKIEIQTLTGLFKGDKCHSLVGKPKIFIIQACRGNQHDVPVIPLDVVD
Protocol: as §1, §2, §3

[6] = biological target: T6, Csp-8 (Homo sapiens, UniProt Q14790); assay: Fluorescence enzyme assay, IC50 determination; format: biochemical; conditions: 30 minutes preincubation at room temperature, AMC substrate
T6 sequence (Q14790 217-374 limits assumed): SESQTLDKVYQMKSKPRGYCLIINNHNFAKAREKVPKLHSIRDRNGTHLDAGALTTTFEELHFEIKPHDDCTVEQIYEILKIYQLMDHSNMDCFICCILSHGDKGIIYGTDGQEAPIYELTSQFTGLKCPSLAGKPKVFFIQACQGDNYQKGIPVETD
Protocol: as §1, §2, §3

[7] = biological target: T2, Csp-1; assay: Continuous assay for dissociation constant Ki of irreversible inhibitors; format: biochemical; conditions: continuous assay for sixty minutes, reaction initiated by adding enzyme to substrate-inhibitor mixture
Description: (§4) For the irreversible inhibition of a ICE/ced-3 Family Protease enzyme with a competitive irreversible inhibitor; using the model represented by the following formulas: [drawing 16] The product formation at time t may be expressed as: [formula] where E, I, EI and E-I denote the active enzyme, inhibitor, non-covalent enzyme-inhibitor complex and covalent enzyme-inhibitor adduct, respectively. The Ki value is the overall dissociation constant of the reversible binding steps, and k3 is the irreversible rate constant. The [S] and Ks values are the substrate concentration and dissociation constant of the substrate bound to the enzyme, respectively. [E]^T is the total enzyme concentration.
(§5) The equations set forth in Example I were also used determine the Ki values of inhibitor (i.e., Compound No. 1) bound to a ICE/ced-3 family protease. Thus, a continuous assay was run for sixty minutes at various concentrations of the inhibitor and the substrate. The assay was formulated essentially the same as described above for generating the data in Table 2, except that the reaction was initiated by adding the enzyme to the substrate-inhibitor mixture. The Ki values were obtained by simulating the product AMC formation as a function of time according to Equation I. The results of this second assay are set forth below in Table 3, wherein the reference compound was Cbz-ValAlaAsp-CH2F.

[8] = biological target: T4, Csp-3; assay: as above; format: biochemical; conditions: continuous assay for sixty minutes, reaction initiated by adding enzyme to substrate-inhibitor mixture
Description: as §4, §5

[9] = biological target: T5, Csp-6; assay: as above; format: biochemical; conditions: continuous assay for sixty minutes, reaction initiated by adding enzyme to substrate-inhibitor mixture
Description: as §4, §5

[10] = biological target: T6, Csp-8; assay: as above; format: biochemical; conditions: continuous assay for sixty minutes, reaction initiated by adding enzyme to substrate-inhibitor mixture
Description: as §4, §5

[11] = biological target: T7, Csp-8 (UniProt Q14790 217-374; Q14790 385-479, limits assumed); assay: continuous fluorogenic enzyme assay, 60 min, fit of AMC product formation to irreversible competitive inhibition model
T7 sequence (Q14790 217-374 limits assumed, form in doubt, chain 1 of 2): as the sequence (Q14790 217-374 limits assumed) above
T7 sequence (Q14790 385-479 limits assumed, form in doubt, chain 2 of 2): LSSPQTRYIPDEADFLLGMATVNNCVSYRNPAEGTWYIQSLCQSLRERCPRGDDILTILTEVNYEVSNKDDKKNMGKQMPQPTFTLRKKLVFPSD

[12] = biological target: T8, Csp-6 (UniProt P55212 24-179; P55212 194-293, limits assumed); assay: as above
T8 sequence (looked up) 1: T5 sequence (P55212 24-179 limits assumed)
T8 sequence (looked up) 2: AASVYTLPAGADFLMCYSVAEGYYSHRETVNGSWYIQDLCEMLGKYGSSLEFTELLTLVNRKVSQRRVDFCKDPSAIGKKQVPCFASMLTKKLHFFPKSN

[13] = biological target: T9, Csp-1 (UniProt P29466 120-297; P29466 317-404, limits assumed); assay: as above
T9 sequence (looked up) 1: T2 sequence (P29466 120-297 limits assumed)
T9 sequence (looked up) 2: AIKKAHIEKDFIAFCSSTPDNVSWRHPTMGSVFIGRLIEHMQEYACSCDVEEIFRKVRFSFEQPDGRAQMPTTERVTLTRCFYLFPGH

[14] = biological target: T10, Csp-3 (UniProt P42574 29-277, limits assumed); assay: as above
T10 sequence (looked up): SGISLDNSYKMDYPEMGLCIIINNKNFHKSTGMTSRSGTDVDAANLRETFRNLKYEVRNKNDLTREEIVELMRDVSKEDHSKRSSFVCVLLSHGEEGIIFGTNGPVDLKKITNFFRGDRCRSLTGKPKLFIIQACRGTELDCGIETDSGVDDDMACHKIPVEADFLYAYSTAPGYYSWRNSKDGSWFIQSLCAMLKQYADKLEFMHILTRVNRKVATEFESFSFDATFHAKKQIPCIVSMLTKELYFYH

[15] = biological target: T7, Csp-8; assay: cell-based or functional assay
[16] = biological target: T8, Csp-6; assay: cell-based or functional assay
[17] = biological target: T9, Csp-1; assay: cell-based or functional assay
[18] = biological target: T11, Csp-9 (UniProt P55211 1-416, limits assumed); assay: cell-based or functional assay
T11 sequence (looked up): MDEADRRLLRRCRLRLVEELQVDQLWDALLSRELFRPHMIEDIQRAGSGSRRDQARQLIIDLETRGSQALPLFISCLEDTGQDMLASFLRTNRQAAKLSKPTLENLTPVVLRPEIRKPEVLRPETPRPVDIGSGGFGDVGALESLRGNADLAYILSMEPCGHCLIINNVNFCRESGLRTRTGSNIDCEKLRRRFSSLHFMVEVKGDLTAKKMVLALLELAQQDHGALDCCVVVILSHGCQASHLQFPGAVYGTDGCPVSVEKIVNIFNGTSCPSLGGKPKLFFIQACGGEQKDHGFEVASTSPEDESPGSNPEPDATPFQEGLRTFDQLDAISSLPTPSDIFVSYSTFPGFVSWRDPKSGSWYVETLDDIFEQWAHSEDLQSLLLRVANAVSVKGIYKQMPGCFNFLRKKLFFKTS

[19] = biological target: T12, Csp-7 (UniProt P55210 24-303, limits assumed); assay: cell-based or functional assay
T12 sequence (looked up): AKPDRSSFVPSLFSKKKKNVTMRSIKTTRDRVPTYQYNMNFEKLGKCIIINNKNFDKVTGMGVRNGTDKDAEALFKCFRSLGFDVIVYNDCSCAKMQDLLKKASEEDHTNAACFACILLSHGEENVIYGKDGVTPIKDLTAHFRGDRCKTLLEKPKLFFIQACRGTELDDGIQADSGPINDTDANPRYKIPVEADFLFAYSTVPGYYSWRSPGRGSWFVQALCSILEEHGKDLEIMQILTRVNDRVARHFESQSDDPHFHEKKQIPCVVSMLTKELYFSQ

[20] = biological target: T10, Csp-3; assay: cell-based or functional assay

CC(C)C(NC(=O)COc1cccc2ccccc12)C(=O)NC(CC(=O)NS(C)(=O)=O)C(=O)COc1c(F)c(F)cc(F)c1F (centres unmarked) [Compound 1]
IC50 [1]: 5 nM
IC50 [2]: 4 nM
IC50 [3]: 4 nM
IC50 [4]: 2 nM
IC50 [5]: 2 nM
IC50 [6]: 6 nM
Ki [7]: 200 nM
Ki [8]: 80 nM
Ki [9]: 400 nM
Ki [10]: 600 nM

Cbz-Val-Ala-Asp-CH2F
Ki [11]: 18 nM
Ki [12]: 594 nM
Ki [13]: 15 nM
Ki [14]: 820 nM

B1: Cbz-ValAlaAsp-H (peptide)
peptide: Cbz-Val-Ala-Asp-{aldehyde′}
IC50 (µM), inhibition of enzyme activity, fluorogenic substrate [15]: 2.96 µM
IC50 (µM), inhibition of enzyme activity, fluorogenic substrate [16]: > 10 µM
IC50 (µM), inhibition of enzyme activity, fluorogenic substrate [17]: 0.064 µM
IC50 (µM), inhibition of enzyme activity, fluorogenic substrate [18]: 0.87 µM
IC50 (µM), inhibition of enzyme activity, fluorogenic substrate [19]: > 10 µM
IC50 (µM), inhibition of enzyme activity, fluorogenic substrate [20]: 47 µM
